Patent US20210128534A1, “DRUG DELIVERY SYSTEMS” (YISSUM RESEARCH DEVELOPMENT COMPANY OF THE HEBREW …, priority 2018, published 2021)
Each block holds one compound with its values, some of them ahead of it.

Columns and labels:
[1] = cited from earlier work
[2] = Reconstitution stability of lyophilized tacrolimus NCs in isotonic aqueous solution; type: physicochemical; settings: room temperature
[3] = Dexamethasone palmitate solubility in FDA approved oils for ophthalmic use; type: physicochemical
Procedure: 8.1 Solubility in FDA Approved Oils for Ophthalmic Use
Dexamethasone palmitate solubility was assessed in mineral oil, castor oil and MCT.

Compound: Cyclosporine A [CsA]
skin levels reported to be active for psoriasis ([1]; equivalent to 1 ng/mg): 1000 ng/g | CsA concentration associated with good clinical response ([1]; human patients with psoriasis, 12-hour trough): higher than 100 ng/ml

time the active remained stable in aqueous formulation [2]: at least 2 weeks
Compound: C=CC[C@@H]1/C=C(\C)C[C@H](C)C[C@H](OC)[C@H]2O[C@@](O)(C(=O)C(=O)N3CCCC[C@H]3C(=O)O[C@H](/C(C)=C/[C@@H]3CC[C@@H](O)[C@H](OC)C3)[C@H](C)[C@@H](O)CC1=O)[C@H](C)C[C@@H]2OC [Tacrolimus]

Compound: CCCCCCCCCCCCCCCC(=O)OCC(=O)[C@@]1(O)[C@H](C)C[C@H]2[C@@H]3CCC4=CC(=O)C=C[C@]4(C)[C@@]3(F)[C@@H](O)C[C@@]21C [Dexamethasone, Dexamethasone palmitate]
Concentration ([3]; solubility in Castor oil): 33600 µg/mL | Concentration ([3]; solubility in MCT): 46600 µg/mL | Concentration ([3]; solubility in Mineral oil): 1300 µg/mL
